The target of one data set is T1, PI3Kβ (Homo sapiens, UniProt P42338).
T1 construct: p110β(2-1070)-His; made in house; host or cells: baculovirus, Tn5 insect cells
The experiment in a line: PI3K KinaseGlo assay, PI3Kβ. In kind it is biochemical. The note with it: KinaseGlo; 25 nM enzyme, 1 μM ATP, 30 mins, room temperature; read-out: PI3Kb/IC50. On the procedure:
PI3K KinaseGlo assay: […] of compound dilutions were dispensed onto black 384-well low volume Non Binding Styrene (NBS) plates (Costar Cat. No. NBS#3676). L-a-phosphatidylinositol (PI), provided as 10 mg/ml solution in methanol, was transferred into a glass tube and dried under nitrogen beam. It was then resuspended in 3% OctylGlucoside (OG) by vortexing and stored at 4° C. The KinaseGlo Luminescent Kinase Assay (Promega, Madison/WI, USA) is a homogeneous HTS method of measuring kinase activity by quantifying the amount of ATP remaining in solution following a kinase reaction.
5 μL of a mix of PI/OG with the PI3K subtype were added (Table 1). Kinase reactions were started by addition of 5 μl of ATP-mix containing in a final volume 10 μL 10 mM TRIS-HCl pH 7.5, 3 mM MgCl2, 50 mM NaCl, 0.05% CHAPS, 1 mM DTT and 1 μM ATP, and occurred at room temperature. […] The standard was used as a reference compound and included in all assay plates in the form of 16 dilution points in duplicate.
The PI3Kα, PI3Kβ and PI3Kδ constructs are fusion of p85α iSH2 domain and the respective p110 isoforms. The p85α fragment and p110 isoform genes were generated by PCR from first strand cDNA generated by RT-PCR from commercial RNA from placenta, testis and brain as described below. The PI3Kγ construct was obtained from Roger Williams lab, MRC Laboratory of Molecular Biology, Cambridge, UK (November, 2003) and is described (Pacold, Michael E.; Suire, Sabine; Perisic, Olga; Lara-Gonzalez, Samuel; Davis, Colin T.; Walker, Edward H.; Hawkins, Phillip T.; Stephens, Len; Eccleston, John F.; Williams, Roger L. Crystal structure and functional analysis of Ras binding to its effector phosphoinositide 3-kinase gamma. Cell (2000), 103(6), 931-943).
BV949: PCR products for the inter SH2 domain (iSH2) of the p85 PI3Kα, PI13Kβ and PI3Kδ subunit and for the full-length p110β subunit were generated and fused by overlapping PCR. […] The p11013 fragment was obtained by PCR using as template a p110β clone (from unknown source that was sequence verified) using primers gwG130-p04 (5′-[…]-[…]-3′) (SEQ ID NO: 9) which contains linker sequences and the 5′ end of p110β and gwG130-p06 (5′-[…]-[…]-3′) (SEQ ID NO: 10) which contains sequences of the 3′ end of p110-β fused to a Histidine tag. […] This final product was recombined in a Gateway (Invitrogen) […] into the donor vector pDONR201 (Invitrogen) to generate the ORF253 entry clone. This clone was verified by sequencing and used in a Gateway LR reaction (Invitrogen) to transfer the insert into the Gateway adapted pBlueBac4.5 (Invitrogen) vector for generation of the baculovirus expression vector LR280.
(§1) PI3Kα, PI3Kβ and PI3Kγ were purified in two chromatographic steps: immobilized metal affinity chromatography (IMAC) on a Ni sepharose resin (GE Healthcare) and gel filtration utilizing a Superdex 200 26/60 column (GE Healthcare). All buffers were chilled to 4° C. and lysis was performed chilled on ice. Column fractionation was performed at room temperature. All buffers used to purify PI3Kβ contained 0.05% Triton X100 in addition to what is described below.
The lysate was centrifuged at 45,000 g for 30 minutes, and the supernatant was loaded onto a pre-equilibrated IMAC column (3 mL resin/100 mL lysate). […] Protein was eluted with 20 mM Tris-Cl, pH 7.5, 0.5 M NaCl, 5% glycerol, 250 mM imidazole, 1 mM NaF, 0.1 μg/mL OAA, 5 mM BME, 1× Complete protease inhibitor cocktail—EDTA-free. Pertinent fractions were analyzed by SDS-PAGE and pooled accordingly. The protein was further purified by gel filtration on a Superdex 200 26/60 column equilibrated in 20 mM Tris-Cl, pH 7.5, 0.5 M NaCl, 5% glycerol, 1 mM NaF, 5 mM DTT, 1× Complete protease inhibitor cocktail—EDTA-free. Pertinent fractions were analyzed by SDS-PAGE and pooled accordingly.
(In general: Kinase-Glo measures the ATP left after a reaction by luminescence.)

The target of another data set is T2, PI3Kγ (Homo sapiens, UniProt P48736, Q459R).
T2 construct: p110γ(Δ143-[Met144-1102])-His; made in house; host or cells: Tn5 insect cells; construct from Roger Williams lab, MRC LMB
T2 sequence (P48736 with tags, fused parts or gaps Q459R): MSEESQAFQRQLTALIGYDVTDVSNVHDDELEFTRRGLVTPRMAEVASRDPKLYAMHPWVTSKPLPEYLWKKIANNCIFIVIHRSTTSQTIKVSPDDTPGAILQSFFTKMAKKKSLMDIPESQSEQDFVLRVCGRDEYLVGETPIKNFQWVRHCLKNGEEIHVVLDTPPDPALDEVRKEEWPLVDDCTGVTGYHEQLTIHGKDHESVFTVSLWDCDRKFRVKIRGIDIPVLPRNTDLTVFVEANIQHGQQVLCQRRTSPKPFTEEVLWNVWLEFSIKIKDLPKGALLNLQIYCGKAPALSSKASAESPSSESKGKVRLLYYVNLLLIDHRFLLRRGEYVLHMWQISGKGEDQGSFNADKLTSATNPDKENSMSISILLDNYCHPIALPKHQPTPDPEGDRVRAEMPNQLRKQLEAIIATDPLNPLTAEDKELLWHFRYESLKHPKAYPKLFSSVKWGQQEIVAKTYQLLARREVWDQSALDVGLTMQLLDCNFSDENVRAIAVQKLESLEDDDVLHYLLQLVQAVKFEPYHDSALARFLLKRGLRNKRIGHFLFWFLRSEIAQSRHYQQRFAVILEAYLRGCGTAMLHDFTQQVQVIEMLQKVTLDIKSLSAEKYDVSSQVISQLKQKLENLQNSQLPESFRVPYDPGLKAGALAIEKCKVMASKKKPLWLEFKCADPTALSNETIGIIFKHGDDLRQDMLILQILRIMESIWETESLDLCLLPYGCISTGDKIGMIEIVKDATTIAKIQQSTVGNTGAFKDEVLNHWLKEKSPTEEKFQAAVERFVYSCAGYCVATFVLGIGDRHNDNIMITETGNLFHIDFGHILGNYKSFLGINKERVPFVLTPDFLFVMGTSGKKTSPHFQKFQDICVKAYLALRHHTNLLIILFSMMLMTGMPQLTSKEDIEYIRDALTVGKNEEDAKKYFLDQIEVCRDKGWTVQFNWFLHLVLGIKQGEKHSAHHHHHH
The experiment in a line: PI3K KinaseGlo assay, PI3Kγ. In kind it is biochemical. The conditions noted are these: 150 nM enzyme, 1 μM ATP, 90 mins, room temperature, read-out: PI3Kg/IC50. On the procedure:
L-a-phosphatidylinositol (PI), provided as 10 mg/ml solution in methanol, was transferred into a glass tube and dried under nitrogen beam. It was then resuspended in 3% OctylGlucoside (OG) by vortexing and stored at 4° C. The KinaseGlo Luminescent Kinase Assay (Promega, Madison/WI, USA) is a homogeneous HTS method of measuring kinase activity by quantifying the amount of ATP remaining in solution following a kinase reaction.
5 μL of a mix of PI/OG with the PI3K subtype were added (Table 1). Kinase reactions were started by addition of 5 μl of ATP-mix containing in a final volume 10 μL 10 mM TRIS-HCl pH 7.5, 3 mM MgCl2, 50 mM NaCl, 0.05% CHAPS, 1 mM DTT and 1 μM ATP, and occurred at room temperature. […] The standard was used as a reference compound and included in all assay plates in the form of 16 dilution points in duplicate. […]
as §1
The lysate was centrifuged at 45,000 g for 30 minutes, and the supernatant was loaded onto a pre-equilibrated IMAC column (3 mL resin/100 mL lysate). […] Protein was eluted with 20 mM Tris-Cl, pH 7.5, 0.5 M NaCl, 5% glycerol, 250 mM imidazole, 1 mM NaF, 0.1 μg/mL OAA, 5 mM BME, 1× Complete protease inhibitor cocktail—EDTA-free. Pertinent fractions were analyzed by SDS-PAGE and pooled accordingly. The protein was further purified by gel filtration on a Superdex 200 26/60 column equilibrated in 20 mM Tris-Cl, pH 7.5, 0.5 M NaCl, 5% glycerol, 1 mM NaF, 5 mM DTT, 1× Complete protease inhibitor cocktail—EDTA-free. Pertinent fractions were analyzed by SDS-PAGE and pooled accordingly. An equal volume of Dialysis Buffer (20 mM Tris-Cl, pH 7.5, 500 mM NaCl, 50% glycerol, 5 mM NaF, 5 mM DTT) was added to the pool and than dialyzed against Dialysis Buffer two changes (one change overnight). Protein was stored at −20° C.

In the next data set the target is T3, PI3Kα (Homo sapiens, UniProt P42336).
T3 construct: p110α(21-1068)-His; made in house; host or cells: baculovirus, Tn5 insect cells
T3 sequence (P42336 with tags, fused parts or gaps): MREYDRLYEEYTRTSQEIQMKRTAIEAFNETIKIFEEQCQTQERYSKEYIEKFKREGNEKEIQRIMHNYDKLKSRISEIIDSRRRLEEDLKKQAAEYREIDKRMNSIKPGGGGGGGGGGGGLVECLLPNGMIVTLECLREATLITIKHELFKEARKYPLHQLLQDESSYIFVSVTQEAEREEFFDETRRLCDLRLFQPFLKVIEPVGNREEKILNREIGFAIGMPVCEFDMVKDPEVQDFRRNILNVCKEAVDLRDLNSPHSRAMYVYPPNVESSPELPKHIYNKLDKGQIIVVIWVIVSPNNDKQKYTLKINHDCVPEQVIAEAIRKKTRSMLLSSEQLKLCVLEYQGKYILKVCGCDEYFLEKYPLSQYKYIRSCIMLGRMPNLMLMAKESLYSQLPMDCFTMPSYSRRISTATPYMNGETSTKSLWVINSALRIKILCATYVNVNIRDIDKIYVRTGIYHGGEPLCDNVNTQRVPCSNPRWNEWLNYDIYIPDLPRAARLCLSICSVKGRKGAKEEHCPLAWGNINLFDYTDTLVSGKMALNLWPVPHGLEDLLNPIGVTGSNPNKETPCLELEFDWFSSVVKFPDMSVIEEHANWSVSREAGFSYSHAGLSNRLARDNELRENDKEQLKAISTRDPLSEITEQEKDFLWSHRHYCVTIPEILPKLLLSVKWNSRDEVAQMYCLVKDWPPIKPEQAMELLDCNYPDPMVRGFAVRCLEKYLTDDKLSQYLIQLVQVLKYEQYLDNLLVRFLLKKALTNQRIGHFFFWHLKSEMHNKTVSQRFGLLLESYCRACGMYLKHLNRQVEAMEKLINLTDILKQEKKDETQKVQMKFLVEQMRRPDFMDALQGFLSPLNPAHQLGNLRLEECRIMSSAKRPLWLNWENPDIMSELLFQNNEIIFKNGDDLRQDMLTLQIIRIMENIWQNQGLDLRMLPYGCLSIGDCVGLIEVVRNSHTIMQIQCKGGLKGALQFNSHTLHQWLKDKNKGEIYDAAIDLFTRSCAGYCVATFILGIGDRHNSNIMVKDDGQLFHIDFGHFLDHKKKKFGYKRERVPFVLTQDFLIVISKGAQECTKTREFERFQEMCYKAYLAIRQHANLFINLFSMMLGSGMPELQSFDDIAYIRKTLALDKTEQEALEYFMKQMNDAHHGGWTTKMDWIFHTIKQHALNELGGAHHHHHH
The experiment in a line: PI3K KinaseGlo assay, PI3Kα. The data set is classed as biochemical. The note with it: KinaseGlo, 10 nM enzyme, 1 μM ATP, 30 mins, room temperature; for IC50: read-out: PI3Ka/IC50.

Another data set deals with T4, PI3Kδ (Homo sapiens, UniProt O00329).
T4 construct: p85iSH2(461-568)-GGGGGG-p110δ(2-1044)-His; made in house; host or cells: baculovirus, Tn5 insect cells
T4 sequence (O00329 with tags, fused parts or gaps): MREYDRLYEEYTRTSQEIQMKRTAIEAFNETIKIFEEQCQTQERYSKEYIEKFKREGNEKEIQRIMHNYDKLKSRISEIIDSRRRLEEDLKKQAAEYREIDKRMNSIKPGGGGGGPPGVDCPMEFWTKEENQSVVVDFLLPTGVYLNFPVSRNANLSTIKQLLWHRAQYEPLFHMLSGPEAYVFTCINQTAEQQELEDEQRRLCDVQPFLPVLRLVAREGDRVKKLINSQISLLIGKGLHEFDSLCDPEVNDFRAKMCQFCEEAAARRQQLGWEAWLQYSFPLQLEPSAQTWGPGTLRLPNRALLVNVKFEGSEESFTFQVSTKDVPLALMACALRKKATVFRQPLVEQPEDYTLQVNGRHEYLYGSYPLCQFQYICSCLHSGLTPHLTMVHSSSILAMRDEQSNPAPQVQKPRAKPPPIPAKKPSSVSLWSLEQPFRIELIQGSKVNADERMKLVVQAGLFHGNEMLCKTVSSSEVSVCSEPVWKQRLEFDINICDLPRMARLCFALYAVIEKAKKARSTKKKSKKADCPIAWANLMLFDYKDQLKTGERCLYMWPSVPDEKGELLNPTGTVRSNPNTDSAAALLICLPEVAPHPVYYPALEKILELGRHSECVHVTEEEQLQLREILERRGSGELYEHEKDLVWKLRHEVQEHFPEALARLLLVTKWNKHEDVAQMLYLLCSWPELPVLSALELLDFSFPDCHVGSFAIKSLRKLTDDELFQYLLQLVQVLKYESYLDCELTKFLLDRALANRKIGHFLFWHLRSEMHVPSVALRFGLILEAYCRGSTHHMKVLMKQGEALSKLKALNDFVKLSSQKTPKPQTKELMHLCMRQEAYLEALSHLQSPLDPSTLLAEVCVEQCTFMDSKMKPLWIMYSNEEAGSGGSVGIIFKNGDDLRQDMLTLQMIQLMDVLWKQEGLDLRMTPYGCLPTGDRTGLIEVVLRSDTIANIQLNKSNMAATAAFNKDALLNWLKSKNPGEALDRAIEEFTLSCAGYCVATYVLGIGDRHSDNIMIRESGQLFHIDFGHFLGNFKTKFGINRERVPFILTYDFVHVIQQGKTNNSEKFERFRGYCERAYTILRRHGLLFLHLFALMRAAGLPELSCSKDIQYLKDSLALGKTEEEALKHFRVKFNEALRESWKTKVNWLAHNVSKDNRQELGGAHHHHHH
As to the kind of experiment: PI3K KinaseGlo assay, PI3Kδ. The data set is classed as biochemical. The note with it: 10 nM enzyme, 1 μM ATP, 30 mins, room temperature, read-out: PI3Kd/IC50.

T1 sequence (P42338 with tags, fused parts or gaps): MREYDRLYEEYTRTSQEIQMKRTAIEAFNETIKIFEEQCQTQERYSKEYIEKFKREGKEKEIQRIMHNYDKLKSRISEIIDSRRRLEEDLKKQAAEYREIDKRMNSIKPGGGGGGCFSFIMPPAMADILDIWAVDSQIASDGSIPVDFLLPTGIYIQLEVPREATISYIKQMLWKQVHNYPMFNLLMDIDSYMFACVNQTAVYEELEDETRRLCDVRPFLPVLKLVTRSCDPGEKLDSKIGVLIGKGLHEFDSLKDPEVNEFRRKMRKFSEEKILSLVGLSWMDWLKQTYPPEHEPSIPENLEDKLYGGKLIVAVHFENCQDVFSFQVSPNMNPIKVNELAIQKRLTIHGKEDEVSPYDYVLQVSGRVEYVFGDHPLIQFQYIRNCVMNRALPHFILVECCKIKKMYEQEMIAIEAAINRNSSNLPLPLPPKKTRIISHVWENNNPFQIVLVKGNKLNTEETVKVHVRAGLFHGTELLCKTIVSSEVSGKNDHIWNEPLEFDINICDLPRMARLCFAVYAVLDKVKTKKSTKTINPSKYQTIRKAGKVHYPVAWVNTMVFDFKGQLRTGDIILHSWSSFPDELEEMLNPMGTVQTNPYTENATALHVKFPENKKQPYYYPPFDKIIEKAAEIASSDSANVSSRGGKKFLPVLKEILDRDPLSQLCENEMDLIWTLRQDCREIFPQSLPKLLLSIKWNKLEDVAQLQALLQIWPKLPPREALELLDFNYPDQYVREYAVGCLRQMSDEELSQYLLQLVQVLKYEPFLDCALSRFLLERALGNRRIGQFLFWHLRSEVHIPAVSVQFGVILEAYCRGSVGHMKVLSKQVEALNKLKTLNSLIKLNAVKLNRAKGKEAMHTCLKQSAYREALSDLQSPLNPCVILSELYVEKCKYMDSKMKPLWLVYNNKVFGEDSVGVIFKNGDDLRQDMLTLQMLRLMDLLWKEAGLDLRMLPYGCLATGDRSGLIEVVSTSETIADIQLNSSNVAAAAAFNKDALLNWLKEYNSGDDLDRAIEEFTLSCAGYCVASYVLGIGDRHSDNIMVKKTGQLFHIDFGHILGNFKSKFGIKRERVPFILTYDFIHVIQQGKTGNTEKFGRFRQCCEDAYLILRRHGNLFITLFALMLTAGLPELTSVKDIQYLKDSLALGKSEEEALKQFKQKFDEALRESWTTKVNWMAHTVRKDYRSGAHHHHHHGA

For the molecule `Cc1nc(NC(=O)N2CCC[C@H]2C(N)=O)sc1-c1ccnc(C2CC2)n1` [Example 59, (S)-Pyrrolidine-1,2-dicarboxylic acid 2-amide 1-({4-methyl-5-[2-cyclopropyl-pyrimidin-4-yl]thiazol-2-yl-}-amide)], the IC50 turned out to be 3500 nM on PI3Kβ, 917 nM at PI3Kγ, 64 nM on PI3Kα and 881 nM at PI3Kδ.
For `CCN(CC)c1nccc(-c2sc(NC(=O)N3CCC[C@H]3C(N)=O)nc2C)n1` [Example 63, (S)-Pyrrolidine-1,2-dicarboxylic acid 2-amide 1-{[5-(2-diethylamino-pyrimidin-4-yl)-4-methyl-thiazol-2-yl]-amide}], the IC50 on PI3Kβ was determined as 1200 nM; at PI3Kγ, 790 nM; on PI3Kδ it was 98 nM. Further, the PI3Ka/IC50 on PI3Kα is listed as 0.016 umol I-1.
For the molecule `Cc1nc(NC(=O)N2CCC[C@H]2C(N)=O)sc1-c1ccnc(C(C)(C)C(F)(F)F)n1` [Example 64, (S)-Pyrrolidine-1,2-dicarboxylic acid 2-amide 1-({4-methyl-5-[2-(2,2,2-trifluoro-1,1-dimethyl-ethyl)-pyrimidin-4-yl]-thiazol-2-yl}-amide)], the IC50 on PI3Kβ was found to be 692 nM; on PI3Kγ it was 451 nM; at PI3Kα, 10 nM; on PI3Kδ, 32 nM.
On the same counts, the results for `Cc1nc(NC(=O)N2CCC[C@H]2C(N)=O)sc1-c1cncc(C2CC2)n1` [Example 66, (S)-Pyrrolidine-1,2-dicarboxylic acid 2-amide 1-{[5-(6-cyclopropyl-pyrazin-2-yl)-4-methyl-thiazol-2-yl]-amide}] are 2740 nM, 435 nM, 13 nM and 298 nM.
In turn, `Cc1nc(NC(=O)N2CCC[C@H]2C(N)=O)sc1-c1ccnc(CC2CC2)n1` [Example 70, (S)-Pyrrolidine-1,2-dicarboxylic acid 2-amide 1-{[5-(2-cyclopropylmethyl-pyrimidin-4-yl)-4-methyl-thiazol-2-yl]-amide}] returned a melting point of 220 to 222 °C.
Regarding `Cc1nc(NC(=O)N2CCC[C@H]2C(N)=O)sc1-c1ccnc(C(C)(C)CF)n1` [Example 71, (S)-Pyrrolidine-1,2-dicarboxylic acid 2-amide 1-({5-[2-(2-fluoro-1,1-dimethylethyl)-pyrimidin-4-yl]-4-methyl-thiazol-2-yl}-amide)], the melting point lay within 187 to 190 °C.
Still for that read-out and setting: to `Cc1cc(-c2sc(NC(=O)N3CCC[C@H]3C(N)=O)nc2C)nc(C(C)(C)C)n1` [Example 72, (S)-Pyrrolidine-1,2-dicarboxylic acid 2-amide 1-{[5-(2-tert-butyl-6-methylpyrimidin-4-yl)-4-methyl-thiazol-2-yl]-amide}] belongs 197 to 199 °C.

For orientation: melting point means the temperature of the solid-liquid transition.

The values are drawn from US8710085B2, “Pyrrolidine-1,2-dicarboxamide derivatives” (Novartis AG, priority 2008, dated 2014).
